We go through ten compounds from ChEMBL document CHEMBL1201862, “PubChem BioAssay data set” (2004).

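Cells were grown in 96-well plates and exposed to each compound for 48 hours at five concentrations; endpoints were interpolated linearly between bracketing concentrations, or set to the highest concentration if not reached. The concentration for 50% growth inhibition is given as GI50.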 The source made the active and inactive calls. Cut-off read from the data, not from the text of the source: active = GI50 up to about 1.1 µM and inactive = higher.

Some test systems named below: SF-268; A498; DMS-273; SW-620; SN12C; UACC-257; SK-MEL-2; DMS-114; M14; IGROV-1; K562; HCT-116; HOP-92; XF498; SK-OV-3; NCI-H522; SR.
Holding throughout (assay): DTP human tumour cell line panel, 48 h

Consider `CSc1nc(NC(=O)O)c(N(C(C)=O)C(=O)O)c(=O)n1C`, for which the GI50 in the test with SF-268, with A498, in the test on DMS-273, in the test on SW-620, in the test on SN12C and with UACC-257 was > 100 µM (inactive) in each case. Also, the GI50 with SK-MEL-2, in the test with DMS-114, in the test on M14, in the test with IGROV-1, in the test with K562 and in the test with HCT-116 was > 100 µM (inactive) in each case. Further, the GI50 in the test on HOP-92 and in the test on XF498 was > 100 µM (inactive) in each case.

Consider `Cc1cc(Cl)ccc1/N=C1/NC(=O)C(CC(=O)Nc2cccc(C)c2C)S1` (stereo not drawn), for which the GI50 with SF-268 was 26 µM (inactive); in the test on A498, 16.9 µM (inactive); with DMS-273 it was 26.1 µM (inactive); with SW-620 it was 35.1 µM (inactive); with SN12C, 25.9 µM (inactive); in the test with UACC-257 it was 29.5 µM (inactive). Moreover, the GI50 with SK-MEL-2 was 20.8 µM (inactive); in the test on DMS-114, 22.8 µM (inactive); in the test on M14, 18.1 µM (inactive); in the test with IGROV-1, 34.8 µM (inactive); with K562 it was 24.8 µM (inactive); in the test with SK-OV-3 it was 30.4 µM (inactive). Moreover, the GI50 with HOP-92 was 1.41 µM (inactive); in the test with XF498 it was 10.7 µM (inactive).

Take `CC1C=CC(=O)C(n2cc(F)c(=O)[nH]c2=O)O1` (stereo not drawn): the GI50 is 21.4 µM (inactive) in the test with DMS-273; 17.6 µM (inactive) with SW-620; 18.4 µM (inactive) with SN12C; 16.4 µM (inactive) in the test with UACC-257; 15.9 µM (inactive) in the test on DMS-114; 18.1 µM (inactive) with M14. Further, the GI50 in the test on IGROV-1 is 20.8 µM (inactive); in the test with K562, 17.7 µM (inactive); in the test on HCT-116, 15.7 µM (inactive); in the test with SK-OV-3 it was 27.7 µM (inactive); with HOP-92, 17.5 µM (inactive); in the test on XF498 it was 15.1 µM (inactive).

As to `C=CCNC1=NC(=O)C(CC(=O)Nc2cccc(Cl)c2)S1` (stereo not drawn), the GI50 with SF-268, with A498, in the test on DMS-273, in the test with SW-620, in the test with NCI-H522 and in the test with SN12C was > 100 µM (inactive) throughout. The GI50 in the test on UACC-257, in the test on SK-MEL-2, in the test with DMS-114, in the test with M14, in the test with IGROV-1 and in the test with K562 was > 100 µM (inactive) each time. Also, the GI50 in the test with SK-OV-3 and in the test with XF498 was > 100 µM (inactive) each time.

On to `CC1Cc2c(N)nc(N3CCOCC3)nc2NC1=O` (stereo not drawn), for which the GI50 with DMS-273, in the test on SW-620, in the test with NCI-H522, with SN12C, in the test with UACC-257 and in the test with SK-MEL-2 was > 100 µM (inactive) each time. For the same compound, the GI50 in the test on DMS-114, in the test on M14, with IGROV-1, with K562, in the test with HCT-116 and with SK-OV-3 was > 100 µM (inactive) throughout. For the same compound, in the test on XF498, the GI50 was 0.463 µM (active).

As to `COc1ccc(NC(=O)CC(=O)n2nc(C)c(/N=N/c3ccccc3C(=O)O)c2C)cc1`, the GI50 in the test on SF-268, in the test on A498, with DMS-273, in the test with SW-620, with NCI-H522 and with SN12C was > 100 µM (inactive) each time. Besides, the GI50 with UACC-257, with SK-MEL-2, in the test with DMS-114, in the test with M14, in the test on IGROV-1 and in the test on K562 was > 100 µM (inactive) throughout. The GI50 is > 100 µM (inactive) in the test with HCT-116, 40.3 µM (inactive) in the test on SK-OV-3 and > 100 µM (inactive) with XF498.

As for `CC(=O)NC1=C(NCC(C)(C)C)C(=O)c2ccccc2C1=O`, the GI50 in the test with SF-268 is > 100 µM (inactive); in the test with DMS-273 it was > 100 µM (inactive); in the test on SR it was > 100 µM (inactive); with SW-620, 66.5 µM (inactive); with NCI-H522, 18.9 µM (inactive); with SN12C, > 100 µM (inactive). In addition, the GI50 in the test with UACC-257 is 50.2 µM (inactive); in the test on SK-MEL-2 it was 69 µM (inactive); in the test on M14, > 100 µM (inactive); with IGROV-1 it was > 100 µM (inactive); in the test on K562, 38.2 µM (inactive); in the test on HCT-116, 33.7 µM (inactive). The GI50 with SK-OV-3 is > 100 µM (inactive); in the test on XF498, 25.8 µM (inactive).

Turning to `Cc1ccc(C2=C(c3ccccc3)C(Br)(c3ccc(C)cc3)C(c3ccccc3)=C2c2ccc(C)cc2)cc1`, the GI50 in the test with SF-268, in the test on A498, in the test on DMS-273, in the test on SW-620, in the test with SN12C and in the test with UACC-257 was > 100 µM (inactive) throughout. Also, the GI50 in the test with SK-MEL-2, with DMS-114, in the test with M14, with IGROV-1, with K562 and with HCT-116 was > 100 µM (inactive) throughout. The GI50 in the test on SK-OV-3, in the test on HOP-92 and in the test with XF498 was > 100 µM (inactive) in each case.

On to `COC(=O)C1=C2CCC(=O)[C@@]2(C)C(OC(C)=O)C=CC1` (stereo partly drawn), for which the GI50 is > 100 µM (inactive) with A498; 36.6 µM (inactive) in the test on DMS-273; 36.4 µM (inactive) in the test on SW-620; > 100 µM (inactive) in the test on SN12C; 40.5 µM (inactive) with UACC-257; 71.6 µM (inactive) in the test with SK-MEL-2. Besides, the GI50 in the test on DMS-114 was 32.7 µM (inactive); in the test on M14 it was 88.9 µM (inactive); in the test on IGROV-1, > 100 µM (inactive); in the test on K562 it was 30.8 µM (inactive); in the test with HCT-116, 24.5 µM (inactive); in the test with SK-OV-3, > 100 µM (inactive). Besides, the GI50 in the test with XF498 was 36.3 µM (inactive).

As for `Cn1cnc([N+](=O)[O-])c1Sc1nc2cc([N+](=O)[O-])ccc2[nH]1`, the GI50 in the test on SF-268 is 19.9 µM (inactive); with A498 it was 29.6 µM (inactive); in the test with DMS-273, 1.73 µM (inactive); in the test with SR, 9.29 µM (inactive); in the test on SW-620, 27.9 µM (inactive); in the test on SN12C it was > 10 µM (inactive). Further, the GI50 in the test with UACC-257 was 14.3 µM (inactive); in the test with M14 it was 34.4 µM (inactive); with IGROV-1, 19 µM (inactive); in the test with K562 it was 24.8 µM (inactive); with HCT-116, 23.4 µM (inactive); in the test with SK-OV-3, 22 µM (inactive). The figures for the GI50 in the test with HOP-92 and with XF498 were 17.3 µM (inactive) and 10.8 µM (inactive), respectively.

As a reminder, the GI50 is the concentration at which growth is held to half of that of the control.
